By IC50 is commonly meant the point on the concentration scale where inhibition reaches its midpoint.

The experiment has as its target T1, Sentrin-specific protease 1 (Homo sapiens, UniProt Q9P0U3).
T1 sequence (Q9P0U3 whole entry): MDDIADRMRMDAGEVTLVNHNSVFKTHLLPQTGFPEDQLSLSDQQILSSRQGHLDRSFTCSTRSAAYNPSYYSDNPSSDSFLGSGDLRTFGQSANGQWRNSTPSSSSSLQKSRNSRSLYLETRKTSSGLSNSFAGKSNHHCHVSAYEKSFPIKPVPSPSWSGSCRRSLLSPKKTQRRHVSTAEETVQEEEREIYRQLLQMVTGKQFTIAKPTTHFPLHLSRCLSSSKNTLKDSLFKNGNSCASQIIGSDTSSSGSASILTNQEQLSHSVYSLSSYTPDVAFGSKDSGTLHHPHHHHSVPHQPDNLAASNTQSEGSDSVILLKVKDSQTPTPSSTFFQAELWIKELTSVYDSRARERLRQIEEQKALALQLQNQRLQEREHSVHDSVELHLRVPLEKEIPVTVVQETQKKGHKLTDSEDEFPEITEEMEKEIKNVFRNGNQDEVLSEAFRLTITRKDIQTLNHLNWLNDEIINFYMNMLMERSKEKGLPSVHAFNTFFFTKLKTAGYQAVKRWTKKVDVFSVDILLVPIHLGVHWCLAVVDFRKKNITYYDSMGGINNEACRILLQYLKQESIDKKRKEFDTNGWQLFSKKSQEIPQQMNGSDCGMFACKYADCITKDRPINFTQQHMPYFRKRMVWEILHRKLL
Kind of experiment: Inhibition of recombinant His-tagged SENP1 catalytic domain expressed in Escherichia coli BL21(DE3) using His-tagged deltaRanGAP-SUMO2 as substrate incubated for 10 mins prior to substrate addition measured after 45 mins by SDS-PAGE analysis.

`O=C(COC(=O)c1ccc(NC(=O)c2cccc(O)c2)cc1)c1ccc(Cl)cc1`: the IC50 is more than 50 µM.

For `Nc1cccc(C(=O)Nc2ccc(C(=O)OCC(=O)c3ccc(Cl)cc3)cc2)c1`, the IC50 is more than 50 µM.

As to `COc1ccc(C(=O)Nc2ccc(C(=O)OCC(=O)c3ccc(Cl)cc3)cc2)cc1OC`, the IC50 is more than 50 µM.

Regarding `CCOc1ccc(C(=O)Nc2ccc(C(=O)OCC(=O)c3ccc(Cl)cc3)cc2)cc1OCC`, the IC50 is more than 50 µM.

The values are drawn from ChEMBL document CHEMBL2157867, “2-(4-Chlorophenyl)-2-oxoethyl 4-benzamidobenzoate derivatives, a novel class of SENP1 inhibitors: Virtual screening, synthesis and biological evaluation” (Bioorg Med Chem Lett, 2012).
